The values that follow come from US6469042B1, “Fluoro oxindole derivatives as modulators if KCNQ potassium channels” (Bristol-Myers Squibb Company, priority 2001, dated 2002).

Marks after values point to notes of the source that are not given here.

In data set [1] the target is T1, cloned mouse KCNQ2 (mKCNQ2) (Mus musculus, UniProt Q9Z351).
T1 construct: expressed in transfected cells; host or cells: Xenopus oocytes injected with mKCNQ2 cRNA
The data set can be described thus: KCNQ oocyte two-electrode voltage clamp, KCNQ2-mediated outward current. Conditions: expressed as percent increase over KCNQ current in controls, Xenopus oocytes. Format: cell-based. On the procedure:
The ability of compounds described in the present invention to open KCNQ channels and increase whole-cell outward (K^+) KCNQ-mediated currents was assessed under voltage-clamp conditions by determining their ability to increase cloned mouse KCNQ2 (mKCNQ2)-mediated, heteromultimeric KCNQ2/3 (mμKCNQ2/3)-mediated, and human KCNQ5 (hKCNQ5)-mediated outward currents heterologously expressed in Xenopus oocytes. Oocytes were prepared and injected using standard techniques; each oocyte was injected with approximately 50 nl of mKCNQ2, or hKCNQ5 cRNA. In the case of mKCNQ2/3 heteromultimeric channel expression, equal amounts (25-50 nL) of ech cRNA were co-injected. […] Following injection, oocytes were maintained at 17° in ND96 medium consisting of (in mM): NaCl, 90; KCl, 1.0; CaCl2, 1:0; MgCl2, 1:0; HEPES, 5.0; pH 7.5. Horse serum (5%) and penicillin/streptomyin (5%) were added to the incubation medium. Recording commenced 2-6 days following mRNA injection. Prior to the start of an experiment oocytes were placed in a recording chamber and incubated in Modified Barth's Solution (MBS) consisting of (in mM): NaCl, 88; NaHCO3, 2.4; KCl, 1.0; HEPES, 10; MgSO4, 0.82; Ca(NO3)2, 0.33; CaCl2, 0.41; pH 7.5.
Oocytes were impaled with electrodes (1-2 MΩ) and standard 2-electrode voltage clamp techniques were employed to record whole-cell membrane currents. Recordings were accomplished using standard two-electrode voltage clamp techniques [Stuhmer, W., et al., Methods in Enzymolgy, Vol. 207: 319-339 (1992)]. Voltage-clamp protocols typically consisted of a series of voltage steps 1-5 sec duration, in +10 mV steps from a holding potential of −90 mV to a maximal potential of +40 mV; records were digitized at 5 kHz and stored on a computer using pClamp data acquisition and analysis software (Axon Instruments). Compounds were evaluated at a single concentration (10 or 20 μM); the effect of the selected compounds of Formula I on KCNQ2 current was expressed as the percent of control current and is listed in Table I.
On the technique in general: Two-electrode voltage clamp is typically applied to oocytes expressing channels or transporters.

In data set [2] the test system is SSS-stimulated trigeminal field response in trigeminal nucleus caudalis. The data set can be described thus: In vivo electrophysiology: superior sagital sinus (SSS)-stimulated trigeminal field response (migraine model). Also on record: species or system rat. The text has this: Male Long-Evans rats (Harlan, 250-400 g) were used in the experiments described in this example. Prior to testing, rats were allowed access to food and water ad libitum and were maintained on a 12:12-h light/dark cycle. Rats were group housed in an Association for Assessment and Accreditation of Laboratory Animal Care (AAALAC) accredited facility and cared for in strict compliance with all applicable regulations.
Rats were anesthetized with 1.2 g/kg i.p. urethane (#U-2500, Sigma Chemical Company, St. Louis, Mo.) and given supplemental urethane as needed. In the case of intravenous (i.v.) drug administration, the jugular veins of the rats were cannulated using sylastic tubing pre-filled with vehicle.
Rats were placed in a stereotaxic device (#1730, David Kopf Instruments, Tujunga, Calif.) and an incision was made to expose the entire skull that continued caudally to the level of the C1/C2 vertebral juncture. Using a microdrill (#770, Dremel, Racine, Wis.) and #4 carbide burr (Henry Schein, Melville, N.Y.), a square section of skull was removed extending from the bregma position, rostrally, to the lambda position, caudally. […]
Stimulated field responses were recorded in the trigeminal nucleus caudalis using Teflon coated stainless-steel microelectrodes (5 megaohms impedance, Frederick Haer, Brunswick, Me.) and amplified and filtered (0.1 Hz-10 kHz) using a differential amplifier (#IsoDAM8, World Precision Instruments, Sarasota, Fla.). […]
Three baseline measures (i.e., 100% of control), each consisting of 100 evoked trigeminal field potentials, were sampled prior to drug injection. […] Following injection of test substances, data were sampled for 1 hour, averaged into 5 minute bins (90 evoked potentials) and expressed as a percent change from average baseline values for the purposes of statistical analysis. Data were analyzed using repeated measures analyses of variance comparing vehicle and drug effects. […]

T1 sequence (Q9Z351 whole entry): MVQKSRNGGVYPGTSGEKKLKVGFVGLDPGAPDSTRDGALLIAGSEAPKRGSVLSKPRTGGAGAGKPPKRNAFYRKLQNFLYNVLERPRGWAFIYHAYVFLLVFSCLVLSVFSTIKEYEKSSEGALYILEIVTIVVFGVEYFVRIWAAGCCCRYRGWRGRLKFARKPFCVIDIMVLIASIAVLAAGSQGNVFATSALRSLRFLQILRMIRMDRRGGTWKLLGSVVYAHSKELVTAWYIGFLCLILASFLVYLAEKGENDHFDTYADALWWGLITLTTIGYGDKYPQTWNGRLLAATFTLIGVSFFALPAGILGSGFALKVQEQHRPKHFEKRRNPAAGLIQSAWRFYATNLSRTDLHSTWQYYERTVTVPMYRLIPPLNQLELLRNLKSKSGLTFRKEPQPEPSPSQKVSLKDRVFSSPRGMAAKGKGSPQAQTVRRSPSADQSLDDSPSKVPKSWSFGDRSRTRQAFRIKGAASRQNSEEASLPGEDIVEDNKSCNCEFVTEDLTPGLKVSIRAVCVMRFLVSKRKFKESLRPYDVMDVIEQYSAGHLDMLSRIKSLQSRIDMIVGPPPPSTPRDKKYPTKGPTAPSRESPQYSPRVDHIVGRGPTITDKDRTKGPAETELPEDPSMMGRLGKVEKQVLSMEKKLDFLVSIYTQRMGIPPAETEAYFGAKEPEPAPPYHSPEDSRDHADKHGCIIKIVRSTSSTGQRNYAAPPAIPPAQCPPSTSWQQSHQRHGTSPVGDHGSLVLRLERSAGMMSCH

For `O=C1Nc2cc(Cl)ccc2C1(F)c1cc(Cl)ccc1OCC(F)(F)F` (single isomer, unassigned; (+)) [Example 12, (+)-6-Chloro-3-[5-chloro-2-(2,2,2-trifluoroethox)phenyl]-1,3-dihydro-3-fluoro-2H-indol-2-one], the “KCNQ2 Current” value in data set [1] (at 20 μM) is on record as “++ (++ = >150%)”. Same read-out and setting: next, `O=C1Nc2cc(C(F)(F)F)ccc2C1(F)c1cc(Cl)ccc1OCCF` (racemic) [Example 14, (±)-3-[5-Chloro-2-(2-fluoroethoxy)phenyl]-1,3-dihydro-3-fluoro-6-(trifluoromethyl)-2H-indol-2-one]: “+ (+ = 120-150%)”. Turning to `O=C1Nc2cc(Cl)ccc2C1(F)c1cc(Cl)ccc1OCC(F)(F)F` (racemic) [Example 11, (±)-6-Chloro-3-[5-chloro-2-(2,2,2-trifluoroethoxy)phenyl]-1,3-dihydro-3-fluoro-2H-indol-2-one], the melting point is 167 to 169 °C. Also, in data set [1] (at 20 μM), the “KCNQ2 Current” value is listed as “++ (++ = >150%)”. In turn, `O=C1Nc2cc(F)c(F)cc2C1(F)c1cc(Cl)ccc1OCC(F)(F)F` (racemic) [Example 10, (±)-3-[5-Chloro-2-(2,2,2-trifluoroethoxy)phenyl]-1,3-dihydro-3,5,6-trifluoro-2H-indol-2-one] came in with a melting point of 200 to 203 °C. Besides, the “KCNQ2 Current” value in data set [1] (at 20 μM) is on record as “+ (+ = 120-150%)”. With `O=C1Nc2cc(C(F)(F)F)ccc2C1(F)c1cc(Cl)ccc1OCC(F)(F)F` (racemic) [Example 1, (±)-3-[5-Chloro-2-[(2,2,2-trifluoroethoxy)phenyl]-1,3-dihydro-3-fluoro-6-(trifluoromethyl)-2H-indol-2-one], the “KCNQ2 Current” value in data set [1] (at 10 μM) is “++** (++ = >150%)”.

The compound `O=C1Nc2cc(F)ccc2C1(F)c1cc(Cl)ccc1OCC(F)(F)F` (racemic) [Example 6, (±)-3-[5-Chloro-2-(2,2,2-trifluoroethoxy)phenyl]-1,3-dihydro-3,6-difluoro-2H-indol-2-one] came in with a melting point of 200 to 202 °C.

Consider “(±)-3-[5-Chloro-2-(2,2,2-trifluoroethoxy)phenyl]-5,6-dichloro-1,3-dihydro-3-fluoro-2H-indol-2-one [Example 9]”, for which the “KCNQ2 Current” value in data set [1] (at 20 μM) was “+ (+ = 120-150%)”.

`O=C1Nc2cc(CF)ccc2C1(F)c1cc(Cl)ccc1OCC(F)(F)F` (racemic) [Example 7, (±)-3-[5-Chloro-2-(2,2,2-trifluoroethoxy)phenyl]-1,3-dihydro-3-fluoro-6-(fluoromethyl)-2H-indol-2-one] returned a melting point of 150 to 151 °C.

`CCSc1ccc(Cl)cc1C1(F)C(=O)Nc2cc(C(F)(F)F)ccc21` (stereo not shown) [Example 17, 3-[5-Chloro-2-(ethylthio)phenyl]-1,3-dihydro-3-fluoro-6-(trifluoromethyl)-2H-indol-2-one] gave a melting point of 105 to 107 °C. With `O=C1Nc2cc(C(F)(F)F)ccc2C1(F)c1cc(Cl)ccc1OCC(F)(F)F` (racemic) [Example 2, (±)-3-[5-Chloro-2-[(2,2,2-trifluoroethoxy)phenyl]-1,3-dihydro-3-fluoro-6-(trifluoromethyl)-2H-indol-2-one], the “KCNQ2 Current” value in data set [1] (at 10 μM) is “++** (++ = >150%)”. In addition, in data set [2] (50 mg/kg i.v., anesthetized Long-Evans rats, solution in 100% polyethylene glycol 400), the “decrease from control amplitude of SSS-stimulated trigeminal field response” value was found to be 86.7±1.67%. In addition, the “reduction of trigeminal field response compared with vehicle” value in data set [2] (doses 0.1, 1.0, 10.0, 30.0 and 50.0 mg/kg i.v., p<0.01 in all cases) is “Significant reductions compared with vehicle”. Also, the “reduction in the SSS-stimulated trigeminal field response” value in data set [2] (i.v., rats, overall ANOVA p<0.001) was “dose-dependent reduction”. For `O=C1Nc2cc(-c3ccc(C(F)(F)F)cc3)ccc2C1(F)c1cc(Cl)ccc1OCC(F)(F)F` (racemic) [Example 23, (±)-3-[5-Chloro-2-(2,2,2-trifluoroethoxy)phenyl]-1,3-dihydro-3-fluoro-6-[4-(trifluoromethyl)phenyl]-2H-indol-2-one], the melting point lay in the range of 103 to 105 °C.

As a reminder, the melting point is the temperature of the solid-liquid transition.
